Where “and” joins values, the source holds several entries; their conditions need not be identical. Identical values can stand only once. Like-named read-outs stand apart in the source and are kept apart here.
Assays:
Type in all cases: cell-based
[1] = molecular target: T1, human α4β1δ GABAΑ receptor (Homo sapiens, UniProt P18505+P48169); test: FMP assay at α4β1δ GABAA receptors in HEK cells (screening, concentration-inhibition, Schild analysis); conditions: for IC50: vs GABA EC80 0.27–1.0 μM, mean
T1 construct: expressed in transfected cells; host or cells: δ-HEK (HEK293 Flp-In stably expressing human δ), transiently transfected with α4 and β1 1:1
Text: We have previously established a FLIPR membrane potential (FMP) assay to study recombinant δ-containing GABAΑRs entailing a HEK293 Flp-In cell line stably expressing the human δ-subunit which is suitable for co-transfection with any desired α/β subunits. Initially, we validated the applicability of the FMP assay for efficient compound screening in 96-well microtiter plates using the human α4β1δ GABAΑR heterologously expressed in HEK cells. This receptor was chosen as we have previously shown this system to be reliable in expressing δ-containing receptors. To this end, we determined the Z′-factor, which is a statistical factor used to measure the suitability of an assay for high throughput screening.
Thus, we went on to further characterize 2027 by making a full concentration-inhibition curve.
(§1) HEK293 cells were maintained in DMEM containing GlutaMAX-I, supplemented with 10% FBS and 1% penicillin-streptomycin and incubated at 37 °C and a humidity of 5% CO2. For expression of δ-containing GABAΑ receptors, a HEK293 Flp-In^ΤΜ cell line stably expressing the human GABAΑ δ-subunits (referred to as δ-HEK) was used and the γ-containing subtypes was expressed in a background HEK293 Flp-In^ΤΜ cell line stably expressing the G-protein coupled peptide receptor NPBWR2 (referred to as HEK background)[26], both positively selected for using 200 μg/mL hygromycin B. α1β2γ2 receptors were stably expressed in a HEK293 cell line maintained as above but with no selection (gift from Marianne L. Jensen, Neurosearch).
(§2) To express recombinant GABAΑ receptors human α1, α2, α3, α5, α6, β2, γ2 (pcDNA3.1/Zeo) and α4, β1 (pUNIV)[26] subunit cDNA were transiently transfected into either δ-HEK or HEK background cells. δ-HEK cells were transfected with α- and β-subunits in a 1:1 ration whereas HEK background cells were transfected with α-, β- and γ-subunits in a 1:1:2 ratio. Human BGT1 (pcDNA5/FRT)[43] was transiently transfected into the δ-HEK cell line. δ-HEK cells transfected for whole-cell patch-clamp recordings were co-transfected with green fluorescent protein (GFP) as well as α- and β-subunits in a 0.5:1:1 ratio (0.8 μg + 1.6 μg + 1.6 μg in a 6 cm dish) in order to identify transfected cells. The transfection was carried out using Polyfect as transfection reagent according to the manufactures protocol expect for using half the recommended volume of Polyfect.
(§3) The FMP assay was performed as previously described with a few modifications. Briefly, HEK cells were transfected as described[26] and 16–20 hours later plated (50,000 cells/well in DMEM medium) into clear-bottomed black 96-well plates coated with poly-D-lysine and the assay performed 20–28 hours later. The assay protocol including the FMP blue dye incorporation into membranes was exactly as described in Falk-Petersen et al.[26]. […] Data was obtained as changes in fluorescence units (∆RFU) by measuring emission at 560 nm caused by excitation at 530 nm. Unless otherwise mentioned in the text or figure legends experiments were performed in at least three independent experiments each using three technical replicates.
(§4) Data obtained in the FMP assay are given as relative changes in fluorescence units (ΔRFU) by subtracting the average of the baseline fluorescence signal from the peak fluorescence signal after compound addition. All raw traces were inspected manually and peak signals resulting from compound/buffer addition together with signal artefacts were omitted from the analysis.
The concentration-response curves obtained in the FMP assay for both agonists (determining EC50 values) and antagonists (determining IC50 values) were fitted using the four-parameter concentration-response model: Response=bottom+top−bottom/1+10^[(logEC50-A)⋅nH] EC/IC50 values describe the concentration resulting in the half-maximal response (halfway between top and bottom), and nΗ is the Hill coefficient.

[2] = molecular target: T2, human α1β2γ2 GABAΑ receptor (Homo sapiens, UniProt P14867+P47870); test: FMP assay at α1β2γ2 GABAA receptors in HEK cells
T2 construct: expressed in transfected cells; host or cells: HEK293 line stably expressing α1β2γ2 (gift from Marianne L. Jensen, Neurosearch)
Method: as §1, §2
(§5) The FMP assay was performed as previously described with a few modifications. […] Data was obtained as changes in fluorescence units (∆RFU) by measuring emission at 560 nm caused by excitation at 530 nm. […]
(§6) Data obtained in the FMP assay are given as relative changes in fluorescence units (ΔRFU) by subtracting the average of the baseline fluorescence signal from the peak fluorescence signal after compound addition. […]

[3] = molecular target: T3, human α4β1γ2 GABAΑ receptor (Homo sapiens, UniProt P18505+P48169); test: FMP assay at α4β1γ2 GABAA receptors in HEK cells
T3 construct: expressed in transfected cells; host or cells: HEK background (HEK293 Flp-In stably expressing NPBWR2), transient α:β:γ 1:1:2
Method: as §1, §2, §5, §6

[4] = molecular target: T4, human α5β2γ2 GABAΑ receptor (Homo sapiens, UniProt P31644+P47870); test: FMP assay at α5β2γ2 GABAA receptors in HEK cells
T4 construct: expressed in transfected cells; host or cells: HEK background (HEK293 Flp-In stably expressing NPBWR2), transient α:β:γ 1:1:2
Method: as §1, §2, §5, §6

[5] = molecular target: T5, human α4β2δ GABAΑ receptor (Homo sapiens, UniProt P47870+P48169); test: FMP assay at α4β2δ GABAA receptors in HEK cells
T5 construct: expressed in transfected cells; host or cells: δ-HEK (HEK293 Flp-In stably expressing human δ), transiently transfected with α and β 1:1
Method: as §1, §2
as §3, with “replicates. Due to an observed edge effect for the FMP assay, outer wells were not used except for the screening.” for “replicates.”
as §4, with “analysis. […]” for “analysis.”

[6] = molecular target: T6, human α6β2δ GABAΑ receptor (Homo sapiens, UniProt P47870+Q16445); test: FMP assay at α6β2δ GABAA receptors in HEK cells
T6 construct: expressed in transfected cells; host or cells: δ-HEK (HEK293 Flp-In stably expressing human δ), transiently transfected with α and β 1:1
Method: as §1, §2, §5, §6

[7] = read-out: pIC50 ± SEM (converted)

T2 sequence (P14867 28-456): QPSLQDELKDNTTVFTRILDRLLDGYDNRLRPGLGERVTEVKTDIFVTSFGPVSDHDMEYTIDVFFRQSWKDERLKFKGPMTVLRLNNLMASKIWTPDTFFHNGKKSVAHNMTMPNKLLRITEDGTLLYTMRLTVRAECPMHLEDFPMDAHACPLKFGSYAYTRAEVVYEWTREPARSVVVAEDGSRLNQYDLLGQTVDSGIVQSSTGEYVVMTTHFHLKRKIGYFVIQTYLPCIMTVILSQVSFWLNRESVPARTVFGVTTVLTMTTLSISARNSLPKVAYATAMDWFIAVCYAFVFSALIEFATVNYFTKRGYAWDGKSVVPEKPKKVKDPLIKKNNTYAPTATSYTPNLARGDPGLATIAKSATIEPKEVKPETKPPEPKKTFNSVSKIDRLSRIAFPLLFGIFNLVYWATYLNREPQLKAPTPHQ
T2 sequence (P47870 25-512 limits assumed): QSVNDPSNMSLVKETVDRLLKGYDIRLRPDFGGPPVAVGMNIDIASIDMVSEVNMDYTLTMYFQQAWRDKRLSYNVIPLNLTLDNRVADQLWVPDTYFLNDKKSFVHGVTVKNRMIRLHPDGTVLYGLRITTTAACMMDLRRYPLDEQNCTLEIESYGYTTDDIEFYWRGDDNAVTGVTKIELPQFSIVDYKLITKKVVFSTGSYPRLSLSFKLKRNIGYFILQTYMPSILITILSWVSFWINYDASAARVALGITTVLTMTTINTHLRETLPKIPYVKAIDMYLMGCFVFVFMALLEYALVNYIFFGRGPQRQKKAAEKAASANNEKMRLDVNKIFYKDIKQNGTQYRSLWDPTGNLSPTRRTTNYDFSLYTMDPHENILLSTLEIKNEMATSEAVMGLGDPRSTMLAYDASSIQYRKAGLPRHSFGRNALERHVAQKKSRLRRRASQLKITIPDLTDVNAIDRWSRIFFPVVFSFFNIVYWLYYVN
T2 sequence (P18507 40-475 partner): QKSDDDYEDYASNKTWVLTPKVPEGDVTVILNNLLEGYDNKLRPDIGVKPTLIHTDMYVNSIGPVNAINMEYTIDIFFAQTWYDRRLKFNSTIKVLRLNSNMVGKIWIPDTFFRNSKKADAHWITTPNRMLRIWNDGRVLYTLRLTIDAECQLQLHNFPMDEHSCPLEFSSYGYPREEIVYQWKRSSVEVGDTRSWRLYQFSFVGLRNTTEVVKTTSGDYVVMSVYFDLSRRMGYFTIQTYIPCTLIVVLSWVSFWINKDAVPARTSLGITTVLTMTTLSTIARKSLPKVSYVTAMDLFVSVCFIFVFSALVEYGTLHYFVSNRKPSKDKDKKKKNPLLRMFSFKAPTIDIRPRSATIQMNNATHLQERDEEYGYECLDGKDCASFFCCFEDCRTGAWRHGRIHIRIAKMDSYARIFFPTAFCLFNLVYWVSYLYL
T5 sequence (P48169 36-554): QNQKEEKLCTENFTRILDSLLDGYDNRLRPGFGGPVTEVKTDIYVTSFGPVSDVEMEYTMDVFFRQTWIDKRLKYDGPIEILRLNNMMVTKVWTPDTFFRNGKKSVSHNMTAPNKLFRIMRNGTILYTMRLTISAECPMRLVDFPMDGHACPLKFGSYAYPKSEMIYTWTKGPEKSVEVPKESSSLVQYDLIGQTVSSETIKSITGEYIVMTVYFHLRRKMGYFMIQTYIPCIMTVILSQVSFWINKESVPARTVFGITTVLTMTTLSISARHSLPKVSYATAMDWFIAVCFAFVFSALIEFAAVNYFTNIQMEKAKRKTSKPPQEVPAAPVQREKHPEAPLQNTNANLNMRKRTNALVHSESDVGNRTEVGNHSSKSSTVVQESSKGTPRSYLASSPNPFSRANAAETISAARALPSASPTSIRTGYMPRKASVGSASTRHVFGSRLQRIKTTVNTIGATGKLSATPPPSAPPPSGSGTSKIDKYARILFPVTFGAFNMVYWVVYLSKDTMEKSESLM
T5 sequence (P47870 25-512 limits assumed): as the sequence (P47870 25-512 limits assumed) above
T5 sequence (O14764 25-452 partner): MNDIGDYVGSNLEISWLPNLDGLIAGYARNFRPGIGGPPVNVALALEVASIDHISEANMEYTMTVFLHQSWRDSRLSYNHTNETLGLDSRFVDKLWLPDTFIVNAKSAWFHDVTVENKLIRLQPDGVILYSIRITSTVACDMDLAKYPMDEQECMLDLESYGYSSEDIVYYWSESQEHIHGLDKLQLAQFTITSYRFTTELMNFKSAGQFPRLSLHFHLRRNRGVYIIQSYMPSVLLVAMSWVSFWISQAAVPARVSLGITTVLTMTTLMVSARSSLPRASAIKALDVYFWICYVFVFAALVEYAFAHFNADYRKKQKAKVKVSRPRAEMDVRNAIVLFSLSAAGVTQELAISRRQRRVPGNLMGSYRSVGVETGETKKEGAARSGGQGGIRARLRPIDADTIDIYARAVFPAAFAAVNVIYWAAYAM
T3 sequence (P48169 36-554): as the sequence (P48169 36-554) above
T3 sequence (P18505 26-474): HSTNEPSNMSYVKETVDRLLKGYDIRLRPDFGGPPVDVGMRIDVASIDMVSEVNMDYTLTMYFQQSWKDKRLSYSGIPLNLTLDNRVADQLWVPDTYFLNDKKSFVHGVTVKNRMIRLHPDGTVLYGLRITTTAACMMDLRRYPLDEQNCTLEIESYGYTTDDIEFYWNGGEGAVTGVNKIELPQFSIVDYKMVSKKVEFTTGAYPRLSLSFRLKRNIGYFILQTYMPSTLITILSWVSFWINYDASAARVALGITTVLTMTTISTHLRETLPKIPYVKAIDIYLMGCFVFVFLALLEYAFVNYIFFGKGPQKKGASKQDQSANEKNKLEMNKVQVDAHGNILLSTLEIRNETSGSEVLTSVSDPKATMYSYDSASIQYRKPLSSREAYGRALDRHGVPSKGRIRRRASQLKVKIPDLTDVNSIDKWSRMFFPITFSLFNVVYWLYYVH
T3 sequence (P18507 40-475 partner): as the sequence (P18507 40-475 partner) above
T1 sequence (P48169 36-554): as the sequence (P48169 36-554) above
T1 sequence (P18505 26-474): as the sequence (P18505 26-474) above
T1 sequence (O14764 25-452 partner): as the sequence (O14764 25-452 partner) above
T4 sequence (P31644 32-462): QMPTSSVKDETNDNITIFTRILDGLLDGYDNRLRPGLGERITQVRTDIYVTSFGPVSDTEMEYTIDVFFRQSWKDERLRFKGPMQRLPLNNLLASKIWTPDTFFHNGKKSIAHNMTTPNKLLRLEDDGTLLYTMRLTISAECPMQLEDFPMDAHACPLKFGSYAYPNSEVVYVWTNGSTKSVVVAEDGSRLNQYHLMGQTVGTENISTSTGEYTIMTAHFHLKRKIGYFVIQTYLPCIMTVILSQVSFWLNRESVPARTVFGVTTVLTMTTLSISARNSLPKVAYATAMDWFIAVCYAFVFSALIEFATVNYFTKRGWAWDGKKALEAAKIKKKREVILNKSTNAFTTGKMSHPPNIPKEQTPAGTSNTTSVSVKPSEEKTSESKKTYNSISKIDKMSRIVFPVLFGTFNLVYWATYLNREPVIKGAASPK
T4 sequence (P47870 25-512 limits assumed): as the sequence (P47870 25-512 limits assumed) above
T4 sequence (P18507 40-475 partner): as the sequence (P18507 40-475 partner) above
T6 sequence (Q16445 20-453): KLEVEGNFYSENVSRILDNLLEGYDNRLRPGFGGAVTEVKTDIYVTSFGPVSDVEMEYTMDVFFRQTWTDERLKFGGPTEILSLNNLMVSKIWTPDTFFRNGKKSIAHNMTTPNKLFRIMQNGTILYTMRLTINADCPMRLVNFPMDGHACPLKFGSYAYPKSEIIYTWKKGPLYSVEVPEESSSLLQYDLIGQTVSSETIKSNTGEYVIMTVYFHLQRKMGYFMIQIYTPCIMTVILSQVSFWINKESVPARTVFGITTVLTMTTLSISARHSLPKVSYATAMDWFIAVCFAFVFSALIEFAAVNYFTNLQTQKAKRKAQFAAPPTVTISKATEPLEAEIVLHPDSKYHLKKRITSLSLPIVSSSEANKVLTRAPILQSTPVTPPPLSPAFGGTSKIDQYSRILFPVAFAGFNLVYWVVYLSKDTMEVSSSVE
T6 sequence (P47870 25-512 limits assumed): as the sequence (P47870 25-512 limits assumed) above
T6 sequence (O14764 25-452 partner): as the sequence (O14764 25-452 partner) above

Structure (SMILES) | GABA EC80 ([1]; calculated from GABA potencies) [µM] | GABA EC80 ([2]; α1β2γ2, calculated from GABA potencies) [µM] | GABA EC80 ([3]; α4β1γ2, calculated from GABA potencies) [µM] | GABA EC80 ([4]; α5β2γ2, calculated from GABA potencies) [µM] | GABA EC80 ([5]; α4β2δ, calculated from GABA potencies) [µM] | GABA EC80 ([6]; α6β2δ, calculated from GABA potencies) [µM] | Kd ([1]; Gaddum/Schild analysis, read-out: KΒ from Schild analysis) [µM] | potency of 018 relative to 2027 ([1]; IC50 ratio) | IC50 [1] | IC50 [2] [µM] | IC50 [3] [µM] | IC50 [4] [µM] | increased potency at α4β2δ compared to α1β2γ2 ([5]; IC50 68 nM vs 790 nM) [times] | IC50 ([5]; read-out: IC50) [µM] | IC50 [6, 7] [µM] | hit validation, antagonistic effect ([1]; 100, 50 and 10 μM in triplicates) | inhibition at 10 µM ([1]; HEK293, read-out: inhibition of the GABA EC80 signal, primary screening, 10 μM, singlicates) [%] | IC50 [5, 7] [µM] | IC50 ([6]; read-out: IC50) [µM]
NCCCC(=O)O [GABA] | 0.27 to 1.0 | 8.0 | 4.0 to 8.0 | 3.0 | 0.80 to 1.0 | 3.0 |  |  |  |  |  |  |  |  |  |  |  |  | 
O=C(Nc1cccc(C(=O)N2CCC3(CCNCC3)CC2)c1)c1cccs1 [compound 018, N-(3-(3,9-diazaspiro[5.5]undecane-3-carbonyl)phenyl)thiophene-2-carboxamide] |  |  |  |  |  |  | 0.019 | approximately 10 times | 0.09 µM and 0.088 µM | 0.79 | 0.0372 | 0.051 | 12 | 0.068 | 0.331 |  |  |  | 
CC(=O)Nc1cccc(C(=O)N2CCC3(CCNCC3)CC2)c1 [compound 2027, N-(3-(3,9-diazaspiro[5.5]undecane-3-carbonyl)phenyl)acetamide] |  |  |  |  |  |  |  |  | 1.03 µM | 4.96 | 0.166 | 0.59 |  |  |  | showed antagonistic effect | > 50 | 0.363 | 4.13

From article PMC7308271, “Discovery of a new class of orthosteric antagonists with nanomolar potency at extrasynaptic GABAA receptors” (Scientific Reports, 2020)
